Source: patent publication US20230391786A1, “cGAS INHIBITORS” (Eli Lilly and Company, priority 2022, published 2023)
Structures can show the parent of a compound that is named as a salt.

Molecular target: recombinant human cGAS (Homo sapiens (Human), UniProt Q8N884)
Assay: In vitro inhibition assay of cGAS activity (cGAMP production, RapidFire mass spectrometry)
Assay type: biochemical
Conditions: 10 nM recombinant human cGAS, 60 nM 75-bp dsDNA, ATP, GTP, room temperature 3 hours, read-out: IC50 (μM), In vitro inhibition assay for Compounds 1-94
Procedure: Expression and Purification of Recombinant cGAS Protein: Insert cDNA encoding full-length of human cGAS into a modified bacterial expression vector containing an in-frame His6-tag. Induce the E. coli strain BL21(DE3) harboring the plasmid with 1 mM IPTG (Isopropyl β-D-1-thiogalactopyranoside) at 18° C. overnight. Purify the His6-tagged cGAS protein over HISpur Ni-NTA resin in the presence of benzonase and RNase followed by Superdex 200 size exclusion chromatography with storage buffer (50 mM Tris-HCl pH 7.5, 300 mM NaCl, 1 mM DTT, 10% glycerol).
In vitro inhibition assay of cGAS activity: Add a 5 μL mixture containing 10 mM Tris-Cl pH 7.5, 50 mM NaCl, 5 mM MgCl2, 1 mM DTT, 0.01% Triton X-100, 60 nM 75-bp dsDNA, […], 50 μM GTP, 10 nM of recombinant human cGAS, and serial dilutions of a test compound in DMSO to a 384-well plate and incubate at room temperature for 3 hours. Quench the reaction by the addition of 100 μL of stop solution containing 0.1% formic acid and 0.1 μM internal standard (3′3′-difluoro cGAMP). Measure the amount of cGAMP produced by RapidFire 365 mass spectrometry and evaluate inhibitory effect of a compound by plotting percent specific inhibition of cGAMP production against log concentration of the test compound. Calculate IC50 values using a 4-parameter non-linear logistic equation (y=(S0+((SInf−S0)/(1+((qAC50/x)^nHill))))).

recombinant human cGAS, sequence (Q8N884 whole entry): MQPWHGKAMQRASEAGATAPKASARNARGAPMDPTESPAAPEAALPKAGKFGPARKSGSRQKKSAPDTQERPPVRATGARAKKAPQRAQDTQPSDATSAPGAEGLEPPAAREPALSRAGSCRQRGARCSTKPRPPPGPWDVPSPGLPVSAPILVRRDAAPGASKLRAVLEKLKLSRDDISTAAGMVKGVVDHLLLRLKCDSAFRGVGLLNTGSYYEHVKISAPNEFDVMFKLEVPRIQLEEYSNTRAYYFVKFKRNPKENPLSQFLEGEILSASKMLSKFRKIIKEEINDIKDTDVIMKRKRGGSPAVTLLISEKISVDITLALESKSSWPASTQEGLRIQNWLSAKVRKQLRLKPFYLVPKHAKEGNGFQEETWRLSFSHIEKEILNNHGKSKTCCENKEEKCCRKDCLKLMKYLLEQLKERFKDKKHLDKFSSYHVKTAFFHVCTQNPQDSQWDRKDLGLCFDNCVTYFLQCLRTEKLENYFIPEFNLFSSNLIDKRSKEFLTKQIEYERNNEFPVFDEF

SMILES	IC50 [µM]
Clc1ccc2c(-c3cn[nH]c3)c3n(c2c1Cl)CCNC3 [Example 37, 6,7-Dichloro-10-(1H-pyrazol-4-yl)-1,2,3,4-tetrahydropyrazino[1,2-a]indole hydrochloride]	0.09
CC(=O)N1CCn2c(c(-c3cn[nH]c3)c3ccc(Cl)c(Cl)c32)C1 [Example 38, 1-[6,7-Dichloro-10-(1H-pyrazol-4-yl)-3,4-dihydro-1H-pyrazino[1,2-a]indol-2-yl]ethanone]	0.0404
CNC(=O)N1CCn2c(c(-c3cn[nH]c3)c3ccc(Cl)c(Cl)c32)C1 [Example 39, 6,7-dichloro-N-methyl-10-(1H-pyrazol-4-yl)-3,4-dihydro-1H-pyrazino[1,2-a]indole-2-carboxamide]	0.0392
NS(=O)(=O)N1CCn2c(c(-c3cn[nH]c3)c3ccc(Cl)c(Cl)c32)C1 [Example 40, 6,7-dichloro-10-(1H-pyrazol-4-yl)-3,4-dihydro-1H-pyrazino[1,2-a]indole-2-sulfonamide]	0.0525
CS(=O)(=O)N1CCn2c(c(-c3cn[nH]c3)c3ccc(Cl)c(Cl)c32)C1 [Example 41, 6,7-dichloro-2-methylsulfonyl-10-(1H-pyrazol-4-yl)-3,4-dihydro-1H-pyrazino[1,2-a]indole]	0.0328
COCC(=O)N1CCn2c(c(-c3cn[nH]c3)c3ccc(Cl)c(Cl)c32)C1 [Example 42, 1-[6,7-dichloro-10-(1H-pyrazol-4-yl)-3,4-dihydro-1H-pyrazino[1,2-a]indol-2-yl]-2-methoxy-ethanone]	0.0273
O=C(Cn1cncn1)N1CCn2c(c(-c3cn[nH]c3)c3ccc(Cl)c(Cl)c32)C1 [Example 43, 1-[6,7-dichloro-10-(1H-pyrazol-4-yl)-3,4-dihydro-1H-pyrazino[1,2-a]indol-2-yl]-2-(1,2,4-triazol-1-yl)ethanone]	0.0912
CN(C)C(=O)CCC(=O)N1CCn2c(c(-c3cn[nH]c3)c3ccc(Cl)c(Cl)c32)C1 [Example 44, 4-[6,7-dichloro-10-(1H-pyrazol-4-yl)-3,4-dihydro-1H-pyrazino[1,2-a]indol-2-yl]-N,N-dimethyl-4-oxo-butanamide]	0.0534
O=C(CN1CCOCC1)N1CCn2c(c(-c3cn[nH]c3)c3ccc(Cl)c(Cl)c32)C1 [Example 45, 1-[6,7-dichloro-10-(1H-pyrazol-4-yl)-3,4-dihydro-1H-pyrazino [1,2-a]indole-2-yl]-2-morpholino-ethanone]	0.0834
Cn1ncnc1COCC(=O)N1CCn2c(c(-c3cn[nH]c3)c3ccc(Cl)c(Cl)c32)C1 [Example 46, 1-[6,7-dichloro-10-(1H-pyrazol-4-yl)-3,4-dihydro-1H-pyrazino[1,2-a]indol-2-yl]-2-[(2-methyl-1,2,4-triazol-3-yl)methoxy]ethanone]	0.027
COCc1nnc(CN2CCn3c(c(-c4cn[nH]c4)c4ccc(Cl)c(Cl)c43)C2)o1 [Example 47, 2-[[6,7-dichloro-10-(1H-pyrazol-4-yl)-3,4-dihydro-1H-pyrazino[1,2-a]indol-2-yl]methyl]-5-(methoxymethyl)-1,3,4-oxadiazole formic acid salt]	0.0333
O=C(CN1CCOC1=O)N1CCn2c(c(-c3cn[nH]c3)c3ccc(Cl)c(Cl)c32)C1 [Example 48]	0.0443
CN1CCOC(C(=O)N2CCn3c(c(-c4cn[nH]c4)c4ccc(Cl)c(Cl)c43)C2)C1 (stereo not shown) [Example 50, [6,7-dichloro-10-(1H-pyrazol-4-yl)-3,4-dihydro-1H-pyrazino[1,2-a]indol-2-yl]-(4-methylmorpholin-2-yl)methanone]	0.04
O=C(C1COCCO1)N1CCn2c(c(-c3cn[nH]c3)c3ccc(Cl)c(Cl)c32)C1 (stereo not shown) [Example 51, [6,7-dichloro-10-(1H-pyrazol-4-yl)-3,4-dihydro-1H-pyrazino[1,2-a]indol-2-yl]-(1,4-dioxan-2-yl)methanone]	0.0427
CC(=O)N(C)CC(=O)N1CCn2c(c(-c3cn[nH]c3)c3ccc(Cl)c(Cl)c32)C1 [Example 52, N-[2-[6,7-dichloro-10-(1H-pyrazol-4-yl)-3,4-dihydro-1H-pyrazino[1,2-a]indol-2-yl]-2-oxo-ethyl]-N-methyl-acetamide]	0.0975
O=C(CO)N1CCn2c(c(-c3cn[nH]c3)c3ccc(Cl)c(Cl)c32)C1 [Example 53, 1-[6,7-dichloro-10-(1H-pyrazol-4-yl)-3,4-dihydro-1H-pyrazino[1,2-a]indol-2-yl]-2-hydroxy-ethanone]	0.0268
O=C(O)CCc1[nH]c2c(Cl)c(Cl)ccc2c1-c1cn[nH]c1 [Example 54, 3-(6,7-Dichloro-3-(1H-pyrazol-4-yl)-1H-indol-2-yl) propanoic acid]	0.0381
O=C1CCn2c(c(-c3cn[nH]c3)c3ccc(Cl)c(Cl)c32)N1 [Example 55, 6,7-Dichloro-10-(1H-pyrazol-4-yl)-3,4-dihydro-1H-pyrimido[1,2-a]indol-2-one]	0.0946
CCOc1cc(Cl)c(Cl)c2[nH]cc(-c3cn[nH]c3)c12 [Example 56, 6,7-Dichloro-4-ethoxy-3-(1H-pyrazol-4-yl)-1H-indole]	0.0826

SMILES	IC50 [µM]
OCCOc1cc(Cl)c(Cl)c2[nH]cc(-c3cn[nH]c3)c12 [Example 57, 2-((6,7-Dichloro-3-(1H-pyrazol-4-yl)-1H-indol-4-yl)oxy)ethanol]	0.0352
N#CCOc1cc(Cl)c(Cl)c2[nH]cc(-c3cn[nH]c3)c12 [Example 58, 2-[[6,7-Dichloro-3-(1H-pyrazol-4-yl)-1H-indol-4-yl]oxy]acetonitrile]	0.0158
NC(=O)COc1cc(Cl)c(Cl)c2[nH]cc(-c3cn[nH]c3)c12 [Example 59, 2-[[6,7-Dichloro-3-(1H-pyrazol-4-yl)-1H-indol-4-yl]oxy]acetamide]	0.0242
CC(C#N)Oc1cc(Cl)c(Cl)c2[nH]cc(-c3cn[nH]c3)c12 (stereo not shown) [Example 60, 2-[[6,7-Dichloro-3-(1H-pyrazol-4-yl)-1H-indol-4-yl]oxy]propanenitrile]	0.0855
N#CCOc1cc(Cl)c(Cl)c2[nH]cc(-n3ccnc3)c12 [Example 61, 2-[(6,7-Dichloro-3-imidazol-1-yl-1H-indol-4-yl)oxy]acetonitrile]	0.0326
OCCNc1cc(Cl)c(Cl)c2[nH]cc(-c3cn[nH]c3)c12 [Example 62, 2-[[6,7-Dichloro-3-(1H-pyrazol-4-yl)-1H-indol-4-yl]amino]ethanol]	0.0151
N#CCNc1cc(Cl)c(Cl)c2[nH]cc(-c3cn[nH]c3)c12 [Example 63, 2-[[6,7-Dichloro-3-(1H-pyrazol-4-yl)-1H-indol-4-yl]amino] acetonitrile]	0.0273
NC(=O)CNc1cc(Cl)c(Cl)c2[nH]cc(-c3cn[nH]c3)c12 [Example 64, 2-[[6,7-Dichloro-3-(1H-pyrazol-4-yl)-1H-indol-4-yl]amino] acetamide]	0.0486
O=C(CO)Nc1cc(Cl)c(Cl)c2[nH]cc(-c3cn[nH]c3)c12 [Example 65, N-[6,7-Dichloro-3-(1H-pyrazol-4-yl)-1H-indol-4-yl]-2-hydroxy-acetamide]	0.0158
CC(=O)Nc1cc(Cl)c(Cl)c2[nH]cc(-c3cn[nH]c3)c12 [Example 66, N-[6,7-Dichloro-3-(1H-pyrazol-4-yl)-1H-indol-4-yl]acetamide]	0.0349
O[C@H]1C[C@@H](Nc2cc(Cl)c(Cl)c3[nH]cc(-c4cn[nH]c4)c23)C1 [Example 67, (cis)-3-((6,7-Dichloro-3-(1H-pyrazol-4-yl)-1H-indol-4-yl)amino)cyclobutanol]	0.0371
O=C1CCc2c(-c3cn[nH]c3)c3ccc(Cl)c(Cl)c3n21 [Example 68, 7,8-Dichloro-4-(1H-pyrazol-4-yl)-2,3-dihydropyrrolo[1,2-a] indol-1-one]	0.0965
Clc1ccc2c(-c3cn[nH]c3)c3n(c2c1Cl)CCC(c1nn[nH]n1)C3 (stereo not shown) [Example 69, 3,4-Dichloro-10-(1H-pyrazol-4-yl)-8-(1H-tetrazol-5-yl)-6,7,8,9-tetrahydropyrido[1,2-a]indole]	0.0449
N#CCOc1cc(Cl)c(F)c2[nH]cc(-c3cn[nH]c3)c12 [Example 70, 2-[[6-Chloro-7-fluoro-3-(1H-pyrazol-4-yl)-1H-indol-4-yl]oxy] acetonitrile]	0.0173
NC(=O)COc1cc(Cl)c(F)c2[nH]cc(-c3cn[nH]c3)c12 [Example 71, 2-[[6-Chloro-7-fluoro-3-(1H-pyrazol-4-yl)-1H-indol-4-yl]oxy] acetamide]	0.0463
N#CCOc1cc(Cl)c(F)c2[nH]cc(-n3ccnc3)c12 [Example 72, 2-[(6-Chloro-7-fluoro-3-imidazol-1-yl-1H-indol-4-yl)oxy]acetonitrile]	0.0772
OCCC1CCc2c(-c3cn[nH]c3)c3ccc(Cl)c(Cl)c3n2C1 (stereo not shown) [Example 73, 2-[3,4-Dichloro-10-(1H-pyrazol-4-yl)-6,7,8,9-tetrahydropyrido[1,2-a]indol-7-yl] ethanol]	0.062
O=C1CCCN1C1CCc2c(-c3cn[nH]c3)c3ccc(Cl)c(Cl)c3n2C1 (stereo not shown) [Example 74, 1-[3,4-Dichloro-10-(1H-pyrazol-4-yl)-6,7,8,9-tetrahydropyrido[1,2-a]indol-7-yl]pyrrolidin-2-one]	0.0847
